Results taken from the NIST ThermoML archive (doi:10.1016/j.fluid.2014.07.032).
Numbers after ± are expanded uncertainties.

Columns and labels:
[1] = Liquid; for mass density: 298.15 K, 101.33 kPa, Vibrating tube method; for Normal boiling temperature: Ebulliometric method (Recirculating still)
[2] = refractive index (Na D-line) (dimensionless); details: 298.15 K; 101.33 kPa; Liquid; Standard Abbe refractometry

SMILES: CCCCC(CC)COC(C)=O (stereo not drawn) [2-ethylhexyl acetate]
- mass density [1]: 872.25 ± 0.24 kg/m3
- Normal boiling temperature [1]: 199.10 ± 0.2 °C
- refractive index [2]: 1.4205 ± 0.0007

SMILES: CC(=O)O [acetic acid]
- mass density [1]: 1049.42 ± 0.08 kg/m3
- Normal boiling temperature [1]: 118.1 ± 1 °C
- refractive index [2]: 1.3713 ± 0.0007

SMILES: O [water]
- Normal boiling temperature [1]: 100.1 ± 1 °C
- refractive index [2]: 1.3324 ± 0.0007
